Inconclusive results and toxic doses are left out. How the source made its calls: active means survival T/C of 150% or more; inactive means T/C below 125% in these data. Numbered stars: 1 amine (or outer) side, 2 acyl side, 3 side chain; on linkers, the order of the positions; unused ones are H or OH. Square brackets hold non-standard residues; d marks the D form. Peptide text beside a SMILES is read from it. X21 = O=C(C1=CN(Cc2ccccc2)C=CC1N[*:1])[*:2]
Test system: P388 leukemia ip, CD2F1 mice, survival T/C
Experiment: NCI In Vivo Anticancer Drug Screen. Data for tumor model P388 Leukemia (intraperitoneal) in CD2F1 (CDF1) mice
Conditions: endpoint: median survival time, higher = longer survival
Summary of the method: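 Mice carrying the transplanted tumor received test compound or vehicle. Survival was recorded in each group, and the value is the treated-group measurement divided by that of the vehicle-treated control group.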

[1] = dose: 50.0 mg/kg/injection, schedule: Q01DX005 (ip), vehicle: saline with Tween-80
[2] = dose: 100.0 mg/kg/injection, schedule: Q01DX005 (ip), vehicle: saline with Tween-80
[3] = dose: 200.0 mg/kg/injection, schedule: Q01DX005 (ip), vehicle: saline with Tween-80
[4] = dose: 60.0 mg/kg/injection, schedule: Q01DX005 (ip), vehicle: saline with Tween-80
[5] = dose: 120.0 mg/kg/injection, schedule: Q01DX005 (ip), vehicle: saline with Tween-80
[6] = dose: 50.0 mg/kg/injection, schedule: Q01DX005 (ip), vehicle: Klucel (hydroxypropylcellulose) (HPC)
[7] = dose: 100.0 mg/kg/injection, schedule: Q01DX005 (ip), vehicle: Klucel (hydroxypropylcellulose) (HPC)
[8] = dose: 200.0 mg/kg/injection, schedule: Q01DX005 (ip), vehicle: Klucel (hydroxypropylcellulose) (HPC)

Measured: T/C

CN1CCc2cc3c(cc2C(=O)Cc2ccc4c(c2CO1)OCO4)OCO3
inactive: dose: 2.75 mg/kg/injection, schedule: Q01DX005 (ip), vehicle: Klucel (hydroxypropylcellulose) (HPC) 99 % of control | dose: 5.5 mg/kg/injection, schedule: Q01DX005 (ip), vehicle: Klucel (hydroxypropylcellulose) (HPC) 94 % of control | dose: 11.0 mg/kg/injection, schedule: Q01DX005 (ip), vehicle: Klucel (hydroxypropylcellulose) (HPC) 96 % of control | dose: 22.0 mg/kg/injection, schedule: Q01DX005 (ip), vehicle: Klucel (hydroxypropylcellulose) (HPC) 99 % of control

Fc1cccc(N=Nc2c(-c3ccccc3)nn(C(=S)S)c2-c2ccccc2)c1
inactive: [1] 104 % of control | [2] 101 % of control | [3] 106 % of control

NS(=O)(=O)c1ccc(NC(=O)C2C(=O)N(c3ccc(S(N)(=O)=O)cc3)C(=O)/C2=N/O)cc1 (configuration not stated)
inactive: [4] 111 % of control | [5] 110 % of control | dose: 240.0 mg/kg/injection, schedule: Q01DX005 (ip), vehicle: saline with Tween-80 101 % of control

C[N+](C)(CC(=O)Nc1ccc(Cl)c(Cl)c1)CC(=O)c1ccc(Cl)c(Cl)c1
inactive: dose: 25.0 mg/kg/injection, schedule: Q04DX003 (ip), vehicle: saline with Tween-80 100 % of control | dose: 50.0 mg/kg/injection, schedule: Q04DX003 (ip), vehicle: saline with Tween-80 100 % of control | dose: 100.0 mg/kg/injection, schedule: Q04DX003 (ip), vehicle: saline with Tween-80 90 % of control

COC(=O)/C=N/Nc1ccc(C)cc1
inactive: dose: 25.0 mg/kg/injection, schedule: Q01DX009 (ip), vehicle: other 89 % of control | dose: 50.0 mg/kg/injection, schedule: Q01DX009 (ip), vehicle: other 86 % of control | dose: 100.0 mg/kg/injection, schedule: Q01DX009 (ip), vehicle: other 96 % of control | dose: 200.0 mg/kg/injection, schedule: Q01DX009 (ip), vehicle: other 103 % of control | dose: 400.0 mg/kg/injection, schedule: Q01DX009 (ip), vehicle: other 108 % of control

CC1NC(=O)C(C(C)C)NC(=O)C2=CN(Cc3ccccc3)C=CC2NC(=O)C(C)NC(=O)C(C(C)C)NC(=O)C2=CN(Cc3ccccc3)C=CC2NC1=O (configuration not stated) (cyclo([X21]VA[X21]VA); configuration not given here)
inactive: [4] 94 % of control | [5] 93 % of control

Cn1nc(-c2ccccc2)c([N+](=O)[O-])c1NCc1ccccc1
inactive: [6] 97 % of control | [7] 100 % of control | [8] 97 % of control

CCOC(=O)/C=C1/C(=O)OC2C1OC1OC(C)(C)OC12 (configuration not stated)
inactive: dose: 3.75 mg/kg/injection, schedule: Q01DX005 (ip), vehicle: saline with Tween-80 98 % of control | dose: 7.5 mg/kg/injection, schedule: Q01DX005 (ip), vehicle: saline with Tween-80 97 % of control

OC(Cc1nc2ccccc2s1)c1ccco1 (configuration not stated)
inactive: dose: 60.0 mg/kg/injection, schedule: Q01DX005 (ip), vehicle: Klucel (hydroxypropylcellulose) (HPC) 101 % of control | dose: 120.0 mg/kg/injection, schedule: Q01DX005 (ip), vehicle: Klucel (hydroxypropylcellulose) (HPC) 103 % of control | dose: 240.0 mg/kg/injection, schedule: Q01DX005 (ip), vehicle: Klucel (hydroxypropylcellulose) (HPC) 103 % of control

COc1cc(OC)c(C2SCC(=O)N2c2nnc(C(F)(F)F)s2)c(OC)c1 (configuration not stated)
inactive: dose: 50.0 mg/kg/injection, schedule: Q01DX005 (ip), vehicle: saline + Tween-80 + alcohol 109 % of control | dose: 100.0 mg/kg/injection, schedule: Q01DX005 (ip), vehicle: saline + Tween-80 + alcohol 102 % of control | dose: 200.0 mg/kg/injection, schedule: Q01DX005 (ip), vehicle: saline + Tween-80 + alcohol 92 % of control

CC1=Nc2ccccc2SC2(C1)C(C1COC(C)(C)O1)OC1OC(C)(C)OC12 (configuration not stated)
inactive: [1] 93 % of control | [2] 94 % of control | [3] 92 % of control

N#CNC1=NC(c2ccccc2O)CC(=O)N1 (configuration not stated)
inactive: dose: 100.0 mg/kg/injection, schedule: Q04DX003 (ip), vehicle: suspension in saline 98 % of control | dose: 200.0 mg/kg/injection, schedule: Q04DX003 (ip), vehicle: suspension in saline 105 % of control | dose: 400.0 mg/kg/injection, schedule: Q04DX003 (ip), vehicle: suspension in saline 100 % of control

CCCCCCCC(=O)NCCCC(C)Nc1cc(OC)cc2cccnc12 (configuration not stated)
inactive: [4] 106 % of control | [5] 99 % of control

CC1C(=O)OC2CC34C5CC(C(C)(C)C)C36C(OC(=O)C6O)OC4(C(=O)O5)C21O (configuration not stated)
inactive: [6] 100 % of control | [7] 100 % of control | [8] 92 % of control

Reference: PubChem BioAssay AID330 (DTP/NCI, 2004)
